Reference: publication PMC11444200, “In Vitro Evaluation of Antipseudomonal Activity and Safety Profile of Peptidomimetic Furin Inhibitors” (Biomedicines, 2024)
Read-outs that look alike come from different tables or passages of the source.

Tests used:
mice = settings: cited from earlier work; for tolerated i.p. dose: mice
[1] = tested on: primary human hepatocytes (PHH); set-up: method as in PMID 35594709; settings: PHHs; cited from earlier work
IPEC-J2 cells = experiment: DCFH-DA intracellular ROS assay in IPEC-J2 cells; assay type: cell-based, porcine; settings: 50 and 100 μM, 24 h
Procedure: The cell line used for the experiments was the IPEC-J2 from the jejunum of porcine. The IPEC-J2 epithelial cell line was a kind gift from Dr. Jody Gookin (Department of Clinical Sciences, College of Veterinary Medicine, North Carolina State University, Raleigh, NC, USA). The cell monolayers were maintained in 75 cm^2 cell culture flasks with filtered caps (Orange Scientific, Braine-l’Alleud, Belgium) at 37 °C in a humidified atmosphere containing 5% CO2. The culture medium contained 50% Dulbecco’s modified Eagle’s medium (DMEM) and 50% Ham’s F12 Nutrient Mixture (Merck, Darmstadt, Germany) supplemented with 1.5 mmol/L HEPES, 5% fetal bovine serum (FBS) (Biocenter, Budapest, Hungary), 1% insulin/transferrin/sodium selenite medium supplement, 5 ng/mL epidermal growth factor (EGF), and 1% penicillin/streptomycin (all purchased from Invitrogen, Thermo Fisher Scientific, Waltham, MA, USA). Cells were used between passages 40 and 55. […]
The ability of inhibitors MI-1851 and MI-2415 to induce oxidative stress (ROS) within IPEC-J2 as well as of compound MI-2415 within PHHs was investigated with 2,7-dichloro-dihydro-fluorescein diacetate (DCFH2-DA). […] A Victor X2 2030 (Perkin Elmer, Waltham, MA, USA) was used to determine the fluorescence values of the samples (excitation wavelength: 485 nm, emission wavelength: 535 nm), which are directly proportional to the ROS generation.

CYP3A4 = CYP3A4 (Homo sapiens, UniProt P08684); experiment: microsomal CYP3A4 activity assay (human hepatic microsomes); assay type: in vitro ADME; set-up: human hepatic microsomes (Gibco, Biocenter, Szeged, Hungary); tissue Gibco (Biocenter, Szeged, Hungary); host or cells: human liver microsomes; settings: for microsomal CYP3A4 function: 25, 50 and 100 µM; for inhibition at 100 µM: human, read-out: CYP3A4 inhibitory activities
Procedure: To investigate the effects of inhibitor MI-2415 on CYP3A4 activities, a P450-Glo CYP450 assay (Promega, Madison, WI, USA) was used. […] This luminescent method involves adding a cell-permeable Luciferin-IPA at 3 µM, which was used in 300 µL phenol-red free Williams’ Medium E in each well in the CYP3A4 assay with an incubation time of 1 h. The luminescence activity of the product in the presence of the luciferin detection reagent was proportional to the CYP activity. For the microsomal CYP3A4 assay of inhibitors MI-1851 and MI-2415 at 25, 50, and 100 µM (n = 3), BioVision CYP assays (BioVision, Inc., Kampenhout, Belgium) were used according to the manufacturer’s instructions. The protein content of human hepatic microsomes (Gibco, Biocenter, Szeged, Hungary) was determined by the bicinchoninic acid protein assay kit (Pierce BCA kit, Thermo Fisher Scientific, Waltham, MA, USA) and a 100 µg/well protein was used in each study. […] A Victor X2 2030 fluorescence spectrometer (Perkin Elmer, Waltham, MA, USA) was used to detect the fluorescence intensities of the microsomal CYP3A4 function at wavelengths of λex/em = 535/587 nm and it was also applied to detect the luminescence signals of the cell-based CYP3A4 activity assay.

[2] = tested on: primary human hepatocytes (PHH); set-up: method as in PMID 35594709; settings: 100 µM; cited from earlier work
[3] = tested on: primary human hepatocytes (PHH); experiment: Amplex Red extracellular H2O2 assay in primary human hepatocytes; assay type: cell-based; settings: 50 µM and 100 µM, 24 h
Procedure: PHHs were purchased from Primacyt Cell Culture Technology GmbH (Schwerin, Germany). Hepatocytes were thawed using hepatocyte recovery medium (Primacyt, Schwerin, Germany) and cells were centrifuged (10 min, 100× g, 20 °C) to remove supernatants. Cells were incubated with 5% FBS-containing plating medium for 6 h, then with FBS-free maintenance medium at 37 °C with 5% CO2 (both media were obtained from Primacyt, Schwerin, Germany) on Matrigel-coated membrane inserts (Costar Transwell-COL PTFE permeable supports, 6.5 mm inserts, 0.4 µm pore size, 24-well plate, Corning Incorporated, Kennebunk, ME, USA) for the CCK-8 and Amplex Red procedures. Maintenance medium without FBS was replaced every 24 h and the cells were incubated.
To evaluate the cellular responses of IPEC-J2 to the inhibitors MI-1851 and MI-2415, and those of PHHs to MI-2415, at different concentration levels, the Amplex Red hydrogen peroxide assay kit (Invitrogen, Molecular Probes, Budapest, Hungary) in combination with horseradish peroxidase has been used. In the presence of hydrogen peroxide (in 1:1 stoichiometry), Amplex Red produces a red fluorescent oxidation product, resorufin. The IPEC-J2 cells and PHHs were treated for 24 h with the inhibitor(s) at different concentration levels (50 and 100 μM). […]

Chain of CYP3A4 (P08684 whole entry): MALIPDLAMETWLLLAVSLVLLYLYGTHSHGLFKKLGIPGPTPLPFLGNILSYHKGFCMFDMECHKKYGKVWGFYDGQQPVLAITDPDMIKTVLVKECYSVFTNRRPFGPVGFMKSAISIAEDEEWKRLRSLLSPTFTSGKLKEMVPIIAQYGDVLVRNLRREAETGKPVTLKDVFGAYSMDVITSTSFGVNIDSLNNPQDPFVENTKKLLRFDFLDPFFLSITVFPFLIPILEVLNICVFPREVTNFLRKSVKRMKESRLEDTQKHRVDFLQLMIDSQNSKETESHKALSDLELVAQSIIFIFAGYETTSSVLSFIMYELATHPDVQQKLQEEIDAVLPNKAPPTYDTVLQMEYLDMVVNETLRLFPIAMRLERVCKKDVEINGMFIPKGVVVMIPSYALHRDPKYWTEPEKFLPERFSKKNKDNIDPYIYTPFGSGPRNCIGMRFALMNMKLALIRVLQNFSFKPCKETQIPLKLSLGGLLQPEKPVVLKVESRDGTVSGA

Row | SMILES | tolerated i.p. dose (mice; no higher dose was tested) [mg/kg] | non-cytotoxic concentration [1] | intracellular ROS levels in IPEC-J2 cells (IPEC-J2 cells) | microsomal CYP3A4 function (CYP3A4) | inhibition at 100 µM (CYP3A4) [%] | extracellular hydrogen peroxide production in PHHs [2] | tolerated i.p. dose (mice) [mg/kg] | mortality (mice; mouse, in vivo, ip, 20 mg/kg) | extracellular H2O2 production in PHHs [3] | concentration from which CYP3A4 inhibition is significant (CYP3A4) [µM]
1 | CC(C)(C)[C@H](NC(=O)[C@H](CCONC(=N)N)NC(=O)Cc1ccc(CNC(=N)N)cc1)C(=O)N[C@@H](CCONC(=N)N)C(=O)NCc1ccc(C(=N)N)cc1 [MI-1851] | 15 | up to 100 µM | no significant alterations in intracellular ROS levels | suppressed CYP3A4 function in a concentration-dependent manner | 30 to 50 | lacking any significant effect |  |  |  | 
2 | CC(C)(C)[C@H](NC(=O)[C@H](CCONC(=N)N)NC(=O)Cc1ccc(CNC(=N)N)cc1)C(=O)N[C@@H](CCONC(=N)N)C(=O)NCc1ccc2c(c1)CN=C2N [MI-2415] |  |  | no significant alterations in intracellular ROS levels | reduce CYP3A4 activity but only from 50 µM | 30 to 50 |  | 15 | one of four mice died | did not cause a redox imbalance | 50
